Where two headings read alike, the source gives them in different places.
Assays:
runx1/cmyb+ AGM HSCs = settings: for Effect on HSC expression (# embryos altered/# embryos scored): runx1/cmyb+ HSCs, zebrafish embryos
Procedure: A chemical genetic screen was conducted to identify novel pathways that modulate definitive HSC formation during zebrafish embryogenesis. FIG. 1. Genes such as runx1 and cmyb, required for HSC development during mammalian hematopoiesis, are expressed in the ventral wall of the dorsal aorta in a region analogous to the mammalian AGM at thirty-six hours post-fertilization (hpf). […] Wild-type embryos were incubated with individual compounds from the three-somite stage until thirty-six hpf. Probes for runx1 and cmyb were combined and utilized to detect HSCs by in situ hybridization.
Wild-type age-matched embryos were arrayed into 48-well plates (˜5 embryos/well) of individual test compounds and exposed from 3-somites until 36 hpf. […] In situ hybridization for runx1 and cmyb was performed to assess HSCs. Compounds were retested at 10 μM, 20 μM, and 50 μM. Stem cell specificity was assessed using flk1 at 36 hpf. PGE2, PGI2, dmPGE2 and all cox inhibitors (Sigma) were used at 10 μM to 20 μM.
Qualitative scoring (# embryos with altered HSCs/# scored) of runx1/cmyb was conducted using the following criteria: Normal/unchanged=continuous line of runx1/cmyb+ endothelial cells and occasional hematopoietic clusters. Decreased/absent=reduction in runx1/cmyb+ cells, including the presence of large gaps in the line of HSCs, isolated positive cells, or absence of expression. Increased/excess=enhancement in runx1/cmyb^+ cells, including many HSC clusters, a thickened line of HSCs, or ectopic expression.

vasculature (flk1) = settings: zebrafish embryos, 36 hpf
Procedure: Wild-type age-matched embryos were arrayed into 48-well plates (˜5 embryos/well) of individual test compounds and exposed from 3-somites until 36 hpf. Three compound libraries were utilized: NINDS Custom Collection (1040), SpecPlus Collection (960) and BIOMOL ICCB Known Bioactives (480). […] In situ hybridization for runx1 and cmyb was performed to assess HSCs. Compounds were retested at 10 μM, 20 μM, and 50 μM. Stem cell specificity was assessed using flk1 at 36 hpf. PGE2, PGI2, dmPGE2 and all cox inhibitors (Sigma) were used at 10 μM to 20 μM.

[1] = test system: kidney marrow (KM) hematopoietic lineages; test: Kidney marrow irradiation recovery assay in adult zebrafish; settings: 10 μM, irradiated adult zebrafish
Source text: Wild-type fish were sublethally irradiated, exposed to dmPGE2, and evaluated for kinetics of KM recovery by FACS 11 (FIG. 4A).
Adult zebrafish were exposed to 23 Gy of γ-irradiation. […] Whole KM isolated on days 0, 2, 4, 7, 10, 14 was subjected to FSC/SSC FACS analysis to identify hematopoietic lineages (n=5/treatment×3 replicates).

[2] = test system: peripheral blood and bone marrow WBC; test: 5-Fluorouracil bone marrow injury; type: in vivo, mouse; settings: in vivo exposure, IP, 1 mg/kg
Procedure: Mice were treated with 5-FU (150 mg/kg) as described. Venezia et al., 2004. […] Peripheral blood was obtained on day seven and day fourteen, quantified and subjected to multilineage FACS analysis using antibodies (eBioscience) to B220/IgM (B-lymphoid), CD4/8 (T-lymphoid), Mac1/Gr1 (myeloid), Ter119/CD71 (erythroid) and ckit/sca1 (stem/progenitor). Mice were sacrificed on day 16, and bone marrow was isolated, quantified and analyzed by FACS.

[3] = test system: CFU-S from murine bone marrow cells; test: Murine colony-forming units-spleen (CFU-S); type: in vivo, mouse; settings: CFUS12, WBM treated ex vivo
Procedure: Two independent BM samples were treated (n=5/treatment×2 replicates) for each variable. Recipient mice were lethally irradiated with a split dose of 10 Gy. 6×10^4 unfractionated dmPGE2 or control-treated BM cells were injected retro-orbitally into irradiated recipient mice. Spleens were dissected on day eight or twelve, weighed and fixed with Bouin's solution; hematopoietic colonies per spleen were counted. 1×10^5 cells/recipient were transplanted after treatment with the cox inhibitors. FACS sorted ckit^+sca1^+lineage^− BM cells were treated as above and transplanted at a dose of either 100 cells/recipient or 300 cells/recipient.

[4] = exposure from three somites to 36 hpf, runx1/cmyb staining

Row | SMILES | effect on AGM HSCs in zebrafish embryos (in words) (runx1/cmyb+ AGM HSCs; [4]) | further results
1 | N#CC(=C(/N)Sc1ccccc1N)/C(C#N)=C(\N)Sc1ccccc1N [U0126] |  | effect on AGM HSCs in zebrafish embryos (in words) (runx1/cmyb+ AGM HSCs; zebrafish, in vivo): inhibit HCS
2 | CCCCC[C@H](O)/C=C/C=C\CCCCCCCC(=O)O [13(S)-HODE] |  | Effect on HSC expression (# embryos altered/# embryos scored) (runx1/cmyb+ AGM HSCs; Table 1, 36 hpf): Increase (15/25)
3 | C[C@]12CC[C@H]3[C@@H](CC[C@]4(O)C[C@@H](O)CC[C@]34C=O)[C@@]1(O)CC[C@@H]2C1=CC(=O)OC1 [Strophanthidin] | increases AGM stem cells | 
4 | O=S(=O)(NCCNC/C=C/c1ccc(Br)cc1)c1cccc2cnccc12 [H89] | inhibit HCS | 
5 | CC(C)NCC(O)COc1ccc(CC(N)=O)cc1 (stereo not drawn) [Atenolol] | heightened production of AGM stem cells | 
6 | COc1cccc(-c2cc(=O)c3ccccc3o2)c1N [PD9805] | inhibit HCS | 
7 | CCCC(CCC)C(=O)O [Valproic Acid] | inhibit HCSs | 
8 | [Cl-].[Li+] [lithium chloride] | HSC enhancers | 
9 | Cc1ccc(-c2cc(C(F)(F)F)nn2-c2ccc(S(N)(=O)=O)cc2)cc1 [Celecoxib] |  | decreased runx1/cmyb+ HSCs (# embryos altered/# scored) (runx1/cmyb+ AGM HSCs; 20 μM, 36 hpf): 26/31
10 | CCCCC1(COC(=O)CCC(=O)O)C(=O)N(c2ccccc2)N(c2ccccc2)C1=O [Suxibuzone] |  | Effect on HSC expression (# embryos altered/# embryos scored) (runx1/cmyb+ AGM HSCs; Table 2, 36 hpf): Decrease (16/30)
11 | CCCCC/C=C\C/C=C\CCCCCCCC(=O)O [Linoleic Acid] | upregulated HSC formation | effect on vasculature / flk1 staining (in words) (vasculature (flk1)): remained relatively unchanged; Effect on HSC expression (# embryos altered/# embryos scored) (runx1/cmyb+ AGM HSCs; Table 1, 36 hpf): Increase (22/30)
12 | O=C1Cc2c([nH]c3ccc(Br)cc23)-c2ccccc2N1 [Kenpaullone] | inhibit HCSs | 
13 | CCCCCCOC(=O)[C@]1(O)C[C@@H]2O[C@@]1(C)n1c3ccccc3c3c4c(c5c6ccccc6n2c5c31)C(=O)NC4 [KT5720] | inhibit HCS | 
14 | CC1=C(CC(=O)O)c2cc(F)ccc2/C1=C\c1ccc([S+](C)[O-])cc1 (stereo not drawn) [Sulindac] |  | Effect on HSC expression (# embryos altered/# embryos scored) (runx1/cmyb+ AGM HSCs; Table 2, 36 hpf): Decrease (18/31)
15 | CCCCC[C@H](O)/C=C/[C@@H]1[C@H]2C/C(=C/CCCC(=O)O)O[C@H]2C[C@H]1O [PGI2] | increase moderately | increased runx1/cmyb expression (# embryos altered/# scored) (runx1/cmyb+ AGM HSCs; 20 μM, 36 hpf): 28/47
16 | O=C1Nc2cc(Br)ccc2/C1=C1/Nc2ccccc2/C1=N\O [BIO] | HSC enhancers | 
17 | CCCCCCCC/C=C\C/C=C\C/C=C\CCCC(=O)O [Mead Acid] | upregulated HSC formation | Effect on HSC expression (# embryos altered/# embryos scored) (runx1/cmyb+ AGM HSCs; Table 1, 36 hpf): Increase (24/32)
18 | CCCCC[C@H](O)/C=C/[C@@H]1[C@@H](C/C=C\CCCC(=O)O)[C@@H](O)C[C@H]1O [PGF2] | no effect | 
19 | CCCCCC1OC1C/C=C\C/C=C\C/C=C\CCCC(=O)O (stereo not drawn) [Epoxyeicosatrienoic Acid] |  | Effect on HSC expression (# embryos altered/# embryos scored) (runx1/cmyb+ AGM HSCs; Table 1, 36 hpf): Increase (17/25)
20 | O=C(O)CCC(=O)c1ccc(-c2ccccc2)cc1 [Fenbufen] | decreased HSCs | Effect on HSC expression (# embryos altered/# embryos scored) (runx1/cmyb+ AGM HSCs; Table 2, 36 hpf): Decrease (20/26)
21 | COc1ccc2cc([C@H](C)C(=O)O)ccc2c1 [Naproxen] | reduced stem cells in the aorta | 
22 | CS(=O)(=O)Nc1ccc([N+](=O)[O-])cc1OC1CCCCC1 [NS398] | reduced stem cells in the aorta | decreased runx1/cmyb+ HSCs (# embryos altered/# scored) (runx1/cmyb+ AGM HSCs; 20 μM, 36 hpf): 35/44; survival of irradiated fish to day fourteen [1]: excessive death; peripheral blood (day 14) and bone marrow (day 16) WBC counts after 5-FU injury [2]: significantly inhibited WBC recovery; CFUS activity under selective cox inhibition [3]: significantly alter CFUS activity
23 | CCCCC[C@H](O)/C=C/[C@H]1C(=O)C=C[C@@H]1C/C=C\CCCC(=O)O [Prosteglandin J2] |  | Effect on HSC expression (# embryos altered/# embryos scored) (runx1/cmyb+ AGM HSCs; Table 2, 36 hpf): Decrease (12/22)
24 | CC(C)Cc1ccc(C(C)C(=O)O)cc1 (stereo not drawn) [Ibuprofen] | reduced stem cells in the aorta | 
25 | CCCc1c(OCCCCc2nnn[nH]2)ccc(C(C)=O)c1O [Ly-171883] |  | Effect on HSC expression (# embryos altered/# embryos scored) (runx1/cmyb+ AGM HSCs; Table 1, 36 hpf): Increase (17/26)
26 | CC(=O)Oc1ccccc1C(=O)O [Aspirin] | reduced stem cells in the aorta | 
27 | CCCCC[C@H](O)/C=C/[C@H]1[C@H](O)CC(=O)[C@@H]1C/C=C/CCCC(=O)O (relative stereo) [5-trans PGE2] |  | toxicity in zebrafish embryo screen (runx1/cmyb+ AGM HSCs; Table 4): toxic
